Test results taken from patent publication US8669205B2, “Composition and method for controlling plant diseases” (Sumitomo Chemical Company, Limited, priority 2009, dated 2014).

Columns and labels:
[1] = system: Rhizoctonia damping-off pathogen (Rhizoctonial solani); experiment: Test Example 2: spray to the foot of rice, Rhizoctonia damping-off control; format: in vivo; conditions: rice (Nipponbare), tolclofos-methyl 50 alone, 5 days
Method: A plastic pot was filled with sandy soil and seeds of rice (Nipponbare) were sown on it, followed by cultivation in a greenhouse for 5 weeks. A wettable powder of the compound I was prepared by mixing 10 parts of the compound I, 35 parts of a mixture of white carbon and a polyoxyethylene alkyl ether sulfate ammonium salt (weight ratio of 1:1) and 55 parts of water, followed by grinding the mixture. A wettable powder of tolclofos-methyl was prepared by mixing 10 parts of […], 35 parts of a mixture of white carbon and a polyoxyethylene alkyl ether sulfate ammonium salt (weight ratio of 1:1) and 55 parts of water, followed by grinding the mixture. Each of the wettable powder thus prepared was diluted with water, respectively, followed by mixing together to prepare a mixed solution containing predetermined concentrations of the compound I and tolclofos-methyl. The mixed solution was sprayed to the foot of the rice. […] The occurrence of Rhizoctonia damping-off diseases was checked and the incidence of disease was calculated by Equation 3. […]
(§1) In order to calculate a control value, the same test was conducted in which the plants had been treated with none of the test compounds and the incidence of disease was determined.
(§2) The control value was calculated by the Equation 2 based on the incidence of disease thus determined. […]

[2] = system: Rhizoctonia damping-off pathogen (Rhizoctonial solani); experiment: Test Example 1: cucumber seed treatment, Rhizoctonia damping-off control; format: in vivo; conditions: cucumber (Sagamihanjiro) seed treatment, 9 days
Method: A DMSO solution of the compound I and a DMSO solution of tolclofos-methyl were respectively prepared. These solutions were mixed to prepare a DMSO solution containing predetermined concentrations of the compound I and tolclofos-methyl. Ten (10) μL of the DMSO solution and 1 g of cucumber (Sagamihanjiro) seeds were mixed by shaking in a 15-ml conical tube and then allowed to stand overnight to prepare treated seeds. A plastic pot was filled with sandy soil and the treated seeds were sown on it and then covered with sandy soil which had been mixed with a bran culture of Rhizoctonia damping-off pathogen (Rhizoctonial solani). The sown seeds were watered and then cultured in a greenhouse at 20 to 24° C. for 9 days. The occurrence of Rhizoctonia damping-off diseases was checked and the incidence of disease was calculated by Equation 1.
For comparison, a DMSO solution containing a predetermined concentration of tolclofos-methyl was prepared and subjected to the same test and then the incidence of disease was determined.
as §1, §2

COP(=S)(OC)Oc1c(Cl)cc(C)cc1Cl [Tolclofos-methyl] gave a Control value [1] of 58, a Control value ([2]; tolclofos-methyl 10 g/100 kg seeds alone) of 38 and a Control value ([2]; tolclofos-methyl 40 g/100 kg seeds alone) of 75.
